What was measured:
Format in all cases: cell-based
human TLR8 = target: T1, human TLR8 (Homo sapiens, UniProt Q9NR97); assay: TLR8 inhibition reporter assay (HEK-Blue cells, SEAP reporter, R848 stimulation); details: HEK-Blue cells overexpressing human TLR8, SEAP reporter, R848 15.9 μM
T1 construct: host or cells: HEK-Blue cells (HEK293-derived reporter line)
T1 sequence (Q9NR97 27-1041): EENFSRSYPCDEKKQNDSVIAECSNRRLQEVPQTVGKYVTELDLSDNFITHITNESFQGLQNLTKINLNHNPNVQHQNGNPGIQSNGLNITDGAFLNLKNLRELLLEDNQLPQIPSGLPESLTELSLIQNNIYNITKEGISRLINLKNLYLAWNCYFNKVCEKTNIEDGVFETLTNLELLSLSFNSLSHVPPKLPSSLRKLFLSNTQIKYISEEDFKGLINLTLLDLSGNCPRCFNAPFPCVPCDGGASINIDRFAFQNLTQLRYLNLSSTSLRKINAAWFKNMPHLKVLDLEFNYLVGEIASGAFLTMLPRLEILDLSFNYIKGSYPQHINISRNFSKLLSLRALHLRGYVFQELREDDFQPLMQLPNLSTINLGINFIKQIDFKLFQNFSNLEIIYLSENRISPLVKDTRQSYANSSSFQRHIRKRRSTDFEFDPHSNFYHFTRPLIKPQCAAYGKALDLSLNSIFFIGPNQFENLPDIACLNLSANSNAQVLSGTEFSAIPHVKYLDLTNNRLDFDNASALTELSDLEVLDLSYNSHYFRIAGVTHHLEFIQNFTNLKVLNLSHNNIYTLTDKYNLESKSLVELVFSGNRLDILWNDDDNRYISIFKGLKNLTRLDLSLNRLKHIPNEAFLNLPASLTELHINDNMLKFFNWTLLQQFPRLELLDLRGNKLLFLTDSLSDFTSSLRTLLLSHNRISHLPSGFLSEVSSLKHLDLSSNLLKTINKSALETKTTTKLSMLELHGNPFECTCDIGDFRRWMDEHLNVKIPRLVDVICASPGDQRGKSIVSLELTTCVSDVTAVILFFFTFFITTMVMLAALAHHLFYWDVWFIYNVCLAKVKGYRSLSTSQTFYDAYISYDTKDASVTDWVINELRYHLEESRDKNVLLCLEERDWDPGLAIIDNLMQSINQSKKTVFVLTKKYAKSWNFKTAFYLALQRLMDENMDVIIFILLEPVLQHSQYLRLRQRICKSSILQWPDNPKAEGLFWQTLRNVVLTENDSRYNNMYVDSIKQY
In short: (§1)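 After 22 h at 37 °C, SEAP secretion was measured from human TLR7-, TLR8- or TLR9-expressing HEK-Blue reporter cells given compound (0.05 nM–50 μM) 30 min before agonist: 7.5 μM gardiquimod, 15.9 μM R848 or 5 nM ODN2006 respectively. Percent inhibition referenced to agonist-plus-DMSO and known-inhibitor wells.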

human TLR7 = target: T2, human TLR7 (Homo sapiens, UniProt Q9NYK1); assay: TLR7 inhibition reporter assay (HEK-Blue cells, SEAP reporter, gardiquimod stimulation); details: HEK-Blue cells overexpressing human TLR7, SEAP reporter, gardiquimod 7.5 μM
T2 construct: host or cells: HEK-Blue cells (HEK293-derived reporter line)
T2 sequence (Q9NYK1 27-1049): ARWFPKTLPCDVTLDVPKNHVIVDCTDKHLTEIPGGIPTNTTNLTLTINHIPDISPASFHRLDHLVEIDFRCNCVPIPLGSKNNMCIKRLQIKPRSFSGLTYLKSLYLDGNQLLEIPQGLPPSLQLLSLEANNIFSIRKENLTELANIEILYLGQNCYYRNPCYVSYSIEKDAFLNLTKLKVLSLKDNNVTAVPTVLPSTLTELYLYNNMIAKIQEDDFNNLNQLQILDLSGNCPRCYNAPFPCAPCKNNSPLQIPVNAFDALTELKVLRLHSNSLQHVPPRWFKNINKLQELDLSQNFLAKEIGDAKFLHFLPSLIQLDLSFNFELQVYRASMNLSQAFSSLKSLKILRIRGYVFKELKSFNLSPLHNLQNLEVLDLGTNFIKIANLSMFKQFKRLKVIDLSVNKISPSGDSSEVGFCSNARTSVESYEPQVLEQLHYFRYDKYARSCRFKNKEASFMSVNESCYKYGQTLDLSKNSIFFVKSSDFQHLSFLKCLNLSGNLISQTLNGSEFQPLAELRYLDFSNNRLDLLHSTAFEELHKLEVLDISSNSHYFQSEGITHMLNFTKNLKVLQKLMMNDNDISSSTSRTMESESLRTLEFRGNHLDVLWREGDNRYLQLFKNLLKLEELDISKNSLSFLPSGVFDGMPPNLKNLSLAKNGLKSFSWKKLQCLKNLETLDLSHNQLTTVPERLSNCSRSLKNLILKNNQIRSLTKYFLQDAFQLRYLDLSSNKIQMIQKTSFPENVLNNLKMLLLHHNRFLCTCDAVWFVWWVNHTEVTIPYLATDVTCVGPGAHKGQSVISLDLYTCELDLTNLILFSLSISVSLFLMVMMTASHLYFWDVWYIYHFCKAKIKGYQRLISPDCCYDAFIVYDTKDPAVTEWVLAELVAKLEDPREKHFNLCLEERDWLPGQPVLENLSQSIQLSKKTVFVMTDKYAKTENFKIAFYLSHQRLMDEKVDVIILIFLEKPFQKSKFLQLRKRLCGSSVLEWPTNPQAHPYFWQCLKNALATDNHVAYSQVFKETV
In short: as §1

human TLR9 = target: T3, human TLR9 (Homo sapiens, UniProt Q9NR96); assay: TLR9 inhibition reporter assay (HEK-Blue cells, SEAP reporter, ODN2006 stimulation); details: HEK-Blue cells overexpressing human TLR9, SEAP reporter, ODN2006 5 nM
T3 construct: host or cells: HEK-Blue cells (HEK293-derived reporter line)
T3 sequence (Q9NR96 26-1032): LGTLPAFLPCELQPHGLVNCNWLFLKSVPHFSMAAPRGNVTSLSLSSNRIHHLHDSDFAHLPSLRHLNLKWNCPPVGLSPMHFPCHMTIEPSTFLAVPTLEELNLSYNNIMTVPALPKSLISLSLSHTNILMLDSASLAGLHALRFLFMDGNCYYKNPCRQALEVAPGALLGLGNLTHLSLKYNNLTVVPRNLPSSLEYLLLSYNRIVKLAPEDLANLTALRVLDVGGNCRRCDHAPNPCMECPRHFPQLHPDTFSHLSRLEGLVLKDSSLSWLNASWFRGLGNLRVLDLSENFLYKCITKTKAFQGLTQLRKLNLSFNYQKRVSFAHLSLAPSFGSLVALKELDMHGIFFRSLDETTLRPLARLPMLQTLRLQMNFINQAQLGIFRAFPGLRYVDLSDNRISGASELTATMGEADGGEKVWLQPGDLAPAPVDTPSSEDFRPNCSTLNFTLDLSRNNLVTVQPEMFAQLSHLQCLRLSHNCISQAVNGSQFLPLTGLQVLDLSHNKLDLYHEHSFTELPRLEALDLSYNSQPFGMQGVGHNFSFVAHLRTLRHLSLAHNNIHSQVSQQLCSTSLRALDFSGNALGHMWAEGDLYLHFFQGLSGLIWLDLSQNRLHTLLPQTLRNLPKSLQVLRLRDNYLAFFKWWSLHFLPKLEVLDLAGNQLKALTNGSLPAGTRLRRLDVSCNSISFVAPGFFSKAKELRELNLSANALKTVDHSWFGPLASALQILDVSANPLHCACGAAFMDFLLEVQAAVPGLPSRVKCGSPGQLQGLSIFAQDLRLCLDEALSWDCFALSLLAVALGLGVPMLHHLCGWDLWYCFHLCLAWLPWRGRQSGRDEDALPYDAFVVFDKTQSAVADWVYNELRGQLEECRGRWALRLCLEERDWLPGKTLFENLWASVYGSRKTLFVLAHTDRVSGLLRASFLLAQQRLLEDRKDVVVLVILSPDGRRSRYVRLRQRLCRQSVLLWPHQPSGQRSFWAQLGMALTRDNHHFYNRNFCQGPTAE
In short: as §1

| IC50 (human TLR8) [nM] | IC50 (human TLR7) [nM] | IC50 (human TLR9) [nM] | SMILES |
| --- | --- | --- | --- |
| < 100 | < 100 | 1000 to 50000 | Cc1cc(-c2[nH]c3ccc(C4CCN(Cc5ncn(C)n5)CC4)cc3c2C(C)C)cn2nnnc12 [Example 885, 6-(3-isopropyl-5-(1-((1-methyl-1H-1,2,4-triazol-3-yl)methyl)piperidin-4-yl)-1H-indol-2-yl)-8-methyltetrazolo[1,5-a]pyridine] |
| 1000 to 50000 | 1000 to 50000 | 100 to 1000 | CCc1c(-c2ccnc3[nH]ccc23)[nH]c2cc(C)c(C3CCN(C4CCN(C(C)C)CC4)CC3)cc12 [Example 840, 4-(3-ethyl-5-(1′-isopropyl-[1,4′-bipiperidin]-4-yl)-6-methyl-1H-indol-2-yl)-1H-pyrrolo[2,3-b]pyridine] |
| < 100 | 100 to 1000 | 1000 to 50000 | CCc1c(-c2ccnc3[nH]ncc23)[nH]c2ccc(C3CCN(Cc4cnn(C)c4)CC3)cc12 [Example 901, 4-(3-ethyl-5-(1-((1-methyl-1H-pyrazol-4-yl)methyl)piperidin-4-yl)-1H-indol-2-yl)-1H-pyrazolo[3,4-b]pyridine] |
| < 100 | < 100 | 100 to 1000 | COc1cc(-c2[nH]c3ccc(C4CCN(CC(C)(C)O)CC4)cc3c2C(C)C)cn2ccnc12 [Example 775, 1-(4-(3-isopropyl-2-(8-methoxyimidazo[1,2-a]pyridin-6-yl)-1H-indol-5-yl)piperidin-1-yl)-2-methylpropan-2-ol] |
| 100 to 1000 | 100 to 1000 | < 100 | Cc1cc(-c2[nH]c3ccc(C4CCN(C(CO)CO)CC4)cc3c2C(C)C)cc2nccn12 [Example 755, 2-(4-(3-isopropyl-2-(5-methylimidazo[1,2-a]pyridin-7-yl)-1H-indol-5-yl)piperidin-1-yl)propane-1,3-diol] |
| < 100 | 1000 to 50000 | < 100 | Cc1c(-c2ncnc3[nH]cnc23)[nH]c2ccc(C3CCN(C4CCN(C(C)C)CC4)CC3)cc12 [Example 815, 6-(5-(1′-isopropyl-[1,4′-bipiperidin]-4-yl)-3-methyl-1H-indol-2-yl)-9H-purine] |

More lines, now with the values behind:

| SMILES | IC50 (human TLR8) [nM] | IC50 (human TLR7) [nM] | IC50 (human TLR9) [nM] |
| --- | --- | --- | --- |
| CC(C)c1c(-c2cnc3ncnn3c2)[nH]c2ccc(C3CCN(CC(=O)N(C)C)CC3)cc12 [Example 422, 2-(4-(2-([1,2,4]triazolo[1,5-a]pyrimidin-6-yl)-3-isopropyl-1H-indol-5-yl)piperidin-1-yl)-N,N-dimethylacetamide] | 100 to 1000 | < 100 | 1000 to 50000 |
| Cc1cc(-c2[nH]c3ccc(C4CCN(C(=O)CCN5CCS(=O)(=O)CC5)CC4)cc3c2C(C)C)cn2nnnc12 [Example 634, 3-(1,1-dioxidothiomorpholino)-1-(4-(3-isopropyl-2-(8-methyltetrazolo[1,5-a]pyridin-6-yl)-1H-indol-5-yl)piperidin-1-yl)propan-1-one] | 100 to 1000 | < 100 | > 50000 |
| Cc1cc2nc(-c3[nH]c4ccc(C5CCNCC5)cc4c3C(C)C)c(F)cn2n1 [Example 148, 6-fluoro-5-(3-isopropyl-5-(piperidin-4-yl)-1H-indol-2-yl)-2-methylpyrazolo[1,5-a]pyrimidine] | 100 to 1000 | < 100 | 1000 to 50000 |
| Cc1cn2c(C)cc(-c3[nH]c4ccc(C5CCN(CC(=O)N(C)C)CC5)cc4c3C(C)C)cc2n1 [Example 353, 2-(4-(2-(2,5-dimethylimidazo[1,2-a]pyridin-7-yl)-3-isopropyl-1H-indol-5-yl)piperidin-1-yl)-N,N-dimethylacetamide] | 1000 to 50000 | 100 to 1000 | 100 to 1000 |
| CNC(=O)CN1CCC(c2ccc3[nH]c(-c4cc(OC)n5nc(C)nc5c4)c(C(C)C)c3c2)CC1 [Example 347, 2-(4-(3-isopropyl-2-(5-methoxy-2-methyl-[1,2,4]triazolo[1,5-a]pyridin-7-yl)-1H-indol-5-yl)piperidin-1-yl)-N-methylacetamide] | < 100 | < 100 | 1000 to 50000 |
| Cc1cc2nnnn2cc1-c1[nH]c2ccc(C3CCN(CC(=O)N(C)C)CC3)cc2c1C(C)C [Example 314, 2-(4-(3-isopropyl-2-(7-methyltetrazolo[1,5-a]pyridin-6-yl)-1H-indol-5-yl)piperidin-1-yl)-N,N-dimethylacetamide] | < 100 | < 100 | 1000 to 50000 |
| CNC(=O)CN1CCC(c2ccc3[nH]c(-c4ccc(C)n5nc(C)nc45)c(C(C)C)c3c2)CC1 [Example 383, 2-(4-(2-(2,5-dimethyl-[1,2,4]triazolo[1,5-a]pyridin-8-yl)-3-isopropyl-1H-indol-5-yl)piperidin-1-yl)-N-methylacetamide] | 100 to 1000 | 1000 to 50000 | 1000 to 50000 |
| CNC(=O)c1cnn2c(C)cc(-c3[nH]c4ccc(C5CCNCC5)cc4c3C(C)C)cc12 [Example 274, 5-(3-isopropyl-5-(piperidin-4-yl)-1H-indol-2-yl)-N,7-dimethylpyrazolo[1,5-a]pyridine-3-carboxamide] | > 3130 | 100 to 1000 | 1000 to 50000 |
